Reference: patent publication US20070207503A1, “DETECTION OF ALCOHOL-ESTERIFIED FATTY ACIDS” (priority 2006, published 2007)

What was measured:
[1] = tested on: antibodies against 14,15-DHET; assay: 14,15-DHET solid phase competitive ELISA, specificity; type: binding, goat; conditions: 14,15-DHET ELISA, panel of eicosanoids
Procedure: (§1) High-binding microplates were coated with protein G-purified IgG suspended in 1 M carbonate, pH 9.01 (10 μg/well; 200 μL/well final volume) and then covered with parafilm. After overnight incubation at room temperature, the welts were gently washed five times with tris buffered saline (TBS), pH 7.5, containing 0.1% tween. Non-specific sites were blocked by the addition of 0.2 mL of 5% (w/v) nonfat dry milk in TBS. After 2 hours of incubation at room temperature, they were washed three times with TBS-tween.
(§2) Standards were serially diluted with TBS (100 μL). The diluted samples (100 μL) were added to the IgG-coated plate. Approximately 50 ng of the DHET HRP conjugates were diluted with HRP-dilution buffer (100 μL) and added to the well. Following incubation for 2 hours to permit competitive binding of the molecules to the antibody, unbound material was removed by thorough washing of the wells with TBS-tween, and 150 μL of a calorimetric substrate for HRP [3,3′,5,5′ tetramethylbenzidine (TMB) and hydrogen peroxide] (Sigma Co.) was added. The plate is then incubated for 30 min, the reaction stopped by addition of 75 μL of 1 N H2SO4, and the absorbance at 450 nm was measured using a microtiter plate reader. Under these assay conditions, the amount of color in a well is inversely proportional to the initial concentration of the sample or the standard ligand.
(§3) The specificity of the 14,15-DHET ELISA was investigated using authentic DHET and a panel of eicosanoids which, based on their structure, might be anticipated to compete with 14,15-DHET for binding to antibodies against 14,15-DHET.
(§4) In a typical standard graph for 14,15-DHET, the r2 value for the fit of the data to an equation describing an inverse logarithmic relationship of free 14,15-DHET to B/Bo was usually higher than 0.96. The detection limits for 14,15- and 11,12-DHET with ELISAwere ˜1 pg.

11,12-DHET IgG = assay: 11,12-DHET solid phase competitive ELISA, specificity; type: binding, goat; conditions: 11,12-DHET ELISA, authentic DHETs
Procedure: as §1, §2, §3, §4

[2] = Form-specific antibody production / specificity of anti-14,15-, 11,12-, 8,9- and 5,6-DHETs; type: binding; conditions: DHET coupled to KLH, goat immunized
Procedure: Synthetic 14,15-, 11,12- or 8,9-DHETs were coupled to KLH using dicyclohexylcarbodiimide (DCC) as previously described (10). The 5,6-DHET with COOH at C1 blocked by NH3 to prevent lactone formation were coupled to KLH using 1-ethyl-3-(3-dimethylaminopropyl)carbodiimide hydrochloride (EDC) according to the manufacturer's instruction (Pierce Biotechnology, Rockford, Ill).
The conjugate was used to immunize a goat and antibody titers were determined by ELISA using the DHET-conjugated bovine serum albumin (BSA).
as §3
(§5) The specificity of the antibody developed against 14,15-DHET was further investigated utilizing slot blot analysis. The 14,15-DHET conjugated BSA, BSA alone and 8,9-DHET conjugated to BSA were blotted onto cellulose membrane. Slot blot analysis was carried out with anti-14,15-DHET. […] Anti-8,9-DHET cross-reacted with both 8,9- and 14,15-DHETs.

Anti-8,9-DHET = assay: Cross-reaction of anti-8,9-DHET; type: binding, goat
Procedure: as §5

[3] = tested on: ethanol-esterified 13-HODE IgG; assay: Competitive ELISA with HRP conjugated with ethanol-esterified 13-HODE; type: binding, goat; conditions: plate coated with the IgG, various concentrations
Procedure: FIG. 6 is a graph showing a competitive ELISA carried out with various concentrations of BSA and 13-HODE ethyl ester conjugated BSA to show cross-reactivity of the antibody to the 13-HODE ethyl ester.
A competitive ELISA using a plate coated with the IgG was carried out with various concentrations of BSA conjugated with ethanol-esterified 13-HODE and HRP conjugated with ethanol-esterilied 13-HODE. A negative control for this ELISA was BSA.
ELISA was carried out with serially diluted BSA or ethyl ester of 13-HODE-conjugated BSA and ˜50 ng/100 μl of the ethyl ester of 13-HODE HRP conjugates as described in Example 1.

With `CCCCC[C@H](O)/C=C/C=C\C/C=C\C=C\[C@@H](O)CCCC(=O)O` [5(s)15(S)DiHETE] the “cross-reaction with anti-14,15-DHET” value [1] was “did not cross-react”.
With `CCCCC/C=C\C/C=C\C/C=C\CC(O)C(O)CCCC(=O)O` (stereo not shown) [5,6-DHET] the “cross-reaction with anti-14,15-DHET” value [1] was “did not cross-react”, the “cross-reaction with 11,12-DHET IgG” value (11,12-DHET IgG) was “didn't cross-react” and the form-specific antibody production [2] was “failed”.
With `CCCCC/C=C\C/C=C\C/C=C\CC1OC1CCCC(=O)O` (stereo not shown) [5,6-EET] the “cross-reaction with anti-14,15-DHET” value [1] was “did not cross-react”.
For `CCCCC[C@H](O)/C=C/[C@@H]1[C@@H](CC(=O)CCCCC(=O)O)[C@@H](O)C[C@H]1O` [6-keto-PGF1a], the “cross-reaction with anti-14,15-DHET” value [1] was “did not cross-react”.
For `CCCCC/C=C\C/C=C\CC(O)C(O)C/C=C\CCCC(=O)O` (stereo not shown) [8,9-DHET], the “cross-reaction with anti-14,15-DHET” value [1] was “minimal cross-reaction”, the “cross-reaction with 11,12-DHET IgG” value (11,12-DHET IgG) was “minimal cross-reaction” and the form-specific antibody production [2] was “failed”. The “cross-reaction with anti-8,9-DHET” value (Anti-8,9-DHET) was “cross-reacted”.
In the case of `CCCCC/C=C\C/C=C\CC1OC1C/C=C\CCCC(=O)O` (stereo not shown) [8,9-EET], the “cross-reaction with anti-14,15-DHET” value [1] is reported as “did not cross-react”.
For `CCCCC/C=C\CC(O)C(O)C/C=C\C/C=C\CCCC(=O)O` (stereo not shown) [11,12-DHET], the “cross-reaction with anti-14,15-DHET” value [1] was “minimal cross-reaction” and the form-specific antibody production [2] was “successful”.
In the case of `CCCCC/C=C\C[C@H]1O[C@H]1C/C=C\C/C=C\CCCC(=O)O` [11,12-EET], the “cross-reaction with anti-14,15-DHET” value [1] is reported as “did not cross-react”.
With `CCCCCC(O)C(O)C/C=C\C/C=C\C/C=C\CCCC(=O)O` (stereo not shown) [14,15-DHET] the “cross-reaction with 11,12-DHET IgG” value (11,12-DHET IgG) was “minimal cross-reaction”, the form-specific antibody production [2] was “successful” and the “cross-reaction with anti-8,9-DHET” value (Anti-8,9-DHET) was “cross-reacted”.
In the case of `CCCCCC1OC1C/C=C\C/C=C\C/C=C\CCCC(=O)O` (stereo not shown) [14,15-EET], the “cross-reaction with anti-14,15-DHET” value [1] is reported as “did not cross-react”.
For `CCCCC[C@H](O)/C=C/C=C\C/C=C\C/C=C\CCCC(=O)O` [15(S)HETE], the “cross-reaction with anti-14,15-DHET” value [1] was “did not cross-react”.
With `CCCCC/C=C\C/C=C\CCCCCCCC(=O)OCC` [Ethanol-esterified linoleic acid, linoleic acid ethyl ester] the “competition with ethanol-esterified 13-HODE-HRP conjugate for binding to the IgG” value [3] was “competed with the HRP conjugated with ethanol-esterified 13-HODE in a dose-dependent manner”.
With `CCCCC[C@H](O)/C=C/[C@H]1[C@H](O)CC(=O)[C@@H]1C/C=C\CCCC(=O)O` [PGE2] the “cross-reaction with anti-14,15-DHET” value [1] was “did not cross-react”.
For `CCCCC[C@H](O)/C=C/[C@@H]1[C@@H](C/C=C\CCCC(=O)O)[C@@H](O)C[C@H]1O` [PGF2a], the “cross-reaction with anti-14,15-DHET” value [1] was “did not cross-react”.
For `CCCCC[C@H](O)/C=C/[C@H]1OC(O)C[C@H](O)[C@@H]1C/C=C\CCCC(=O)O` (stereo partly shown) [Thromboxane B2], the “cross-reaction with anti-14,15-DHET” value [1] was “did not cross-react”.
With `CCCCC/C=C\C/C=C\C/C=C\C/C=C\CCCC(=O)O` [arachidonic acid] the “cross-reaction with anti-14,15-DHET” value [1] was “did not cross-react”.
For `CCO` [ethanol], the “competition with ethanol-esterified 13-HODE-HRP conjugate for binding to the IgG” value [3] was “competed with the HRP conjugated with ethanol-esterified 13-HODE in a dose-dependent manner”.
